US9616022B1, “Nanodiamond compositions and their use for drug delivery” (THE FLORIDA INTERNATIONAL UNIVERSITY BOARD OF TRUSTEES, priority 2016, dated 2017)

Legend:
[1] = system: in-vitro BBB model (HBMVEC and astrocytes); assay: Drug delivery through in-vitro BBB model; assay type: in vitro ADME, human; conditions: 40 μg/mL in upper chamber, 30 min to Day 2
Description: Primary human brain microvascular endothelial cells (HBMVEC) and astrocytes were obtained from Sciencell Research Laboratories, Carlsbad, Calif. An in-vitro BBB model was established in trans-well plate as per published protocol.^47,48 HBMVECs were inoculated at the upper side of 0.4-μm pore size PTFE membrane tissue culture inserts (Corning, N.Y.) at initial concentration of 10^4 cells/well. A confluent layer of human astrocytes was grown on the lower side of the membrane. After incubation, integrity of the BBB was measured with transendothelial electrical resistance (TEER) using Millicell ERS microelectrodes (Millipore). […] Afterwards, cell media was collected at different time points (30 mins, 1 hr, Day 1, and Day 2) from the lower chamber and the upper chamber was replenished with fresh media. The drug content of the collected medium was measured through HPLC as mentioned above.

HIV-1 Ba-L = assay: Anti-HIV-1 efficacy, p24 ELISA in infected primary human macrophages; assay type: cell-based; conditions: 40 μg/mL, HIV-1 infected macrophages, supernatant Day 0-7
Description: ND-EFV was investigated for anti-HIV-1 efficacy in primary human macrophage. Human peripheral blood mononuclear cells (PBMCs) were isolated from a healthy subject and differentiated into macrophages as previously published.^45 PBMCs were isolated with Ficoll-Hypaque (Pharmacia) gradient and cells were incubated for differentiation for 7 days in the presence of human macrophage colony stimulating factor (MCSF, Sigma) to macrophages. Following incubation, macrophages were infected with HIV-1 1Ba-L (NIH AIDS research and reference reagent program Cat#510) (100 ng/mL) for 24 hrs. On the next day, cells were washed to get rid of any unattached virus and fresh media was added. At the same time, 40 μg/mL of ND-EFV and unformulated EFV was added to these cells in two different setups. The HIV-1 infected macrophages served as a positive control. The […] treated cells were monitored for up to 10 days along with the infected control cells. The cell supernatant was collected at Day 0, 1, 2, 3, 5, and 7 post-treatment. The viral p24 level in the supernatant was measured with p24 ELISA assay (Cat. #0801200, Zeptometrix, USA). The p24 level at different time points provided the level of viral inhibition caused by ND-EFV and EFV. The p24 level at the culture supernatant will be inversely proportional to therapeutic efficacy of ND-EFV.

[2] = Solubility in water or PBS; assay type: physicochemical
Description: In some embodiments, the efficacy of the ND-EFV formulation can be further optimized by making a suspension of the formulation in a liquid. Being hydrophobic molecules, both EFV and ND were insoluble in water or phosphate buffer saline (PBS). In certain embodiments, solvents with ratios of PBS to DMSO (dimethyl sulfoxide) ranging from 1:1 to 1:9 were used to make the ND-EFV formulation soluble in physiological buffer media. In an exemplary embodiment, a PBS:DMSO ratio of approximately 1:9 was used for making a ND-EFV suspension, which was subsequently diluted in preparation to perform biological experiments.

EFV drug release on the CNS side (lower chamber) of the BBB model [1]: very robust drug release | solubility in water or phosphate buffer saline (PBS) [2]: insoluble
SMILES: O=C1Nc2ccc(Cl)cc2[C@@](C#CC2CC2)(C(F)(F)F)O1 [EFV, Efavirenz]
time over which HIV-1 replication (p24 level) was controlled (HIV-1 Ba-L): ≤ 5 days
